According to article PMC3782081 (Cell, 2012):
Each block holds one compound with its values, some of them ahead of it.

How the values were obtained:
Assay type in all cases: cell-based
[1] = target: T1, UCP1 (uncoupling protein 1) (Mus musculus, UniProt P12242); experiment: whole-mitoplast patch-clamp, inhibition by […] in the bath; settings: read-out: % inhibition at 4 μM
T1 sequence (P12242 1-307): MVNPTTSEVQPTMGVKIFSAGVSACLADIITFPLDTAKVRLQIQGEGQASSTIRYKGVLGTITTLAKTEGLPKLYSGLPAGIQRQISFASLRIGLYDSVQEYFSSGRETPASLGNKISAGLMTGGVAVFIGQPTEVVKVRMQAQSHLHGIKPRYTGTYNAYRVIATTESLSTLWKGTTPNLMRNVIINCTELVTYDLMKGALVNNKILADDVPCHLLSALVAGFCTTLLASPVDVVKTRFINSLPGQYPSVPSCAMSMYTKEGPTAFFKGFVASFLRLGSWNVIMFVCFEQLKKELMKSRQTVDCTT

[2] = target: T1, UCP1 (uncoupling protein 1); experiment: whole-mitoplast patch-clamp, inhibition by […] GDP in the bath
[3] = target: T1, UCP1 (uncoupling protein 1); experiment: whole-mitoplast patch-clamp, inhibition of IUCP1 reactivated with exogenous OA; settings: read-out: % inhibition at 50 μM

inhibition at 4 µM [1]: 92%
SMILES: CCCCCCCC/C=C\CCCCCCCC(=O)SCCNC(=O)CCNC(=O)[C@H](O)C(C)(C)COP(=O)(O)OP(=O)(O)OC[C@H]1O[C@@H](n2cnc3c(N)ncnc32)[C@H](O)[C@@H]1OP(=O)(O)O [oleoyl-CoA]

SMILES: Nc1nc2c(ncn2[C@@H]2O[C@H](COP(=O)(O)OP(=O)(O)O)[C@@H](O)[C@H]2O)c(=O)[nH]1 [GDP]
whole-mitoplast patch-clamp, inhibition by 1 mM GDP in the bath [2]: elicited a large-amplitude current that was strongly inhibited by the classic UCP1 inhibitor GDP (Figure 1B)

inhibition at 50 µM [3]: 77%
SMILES: O=C1NC(=O)/C(=C/c2ccc(C(=O)NC[C@@H]3C[C@@H](SC(c4ccccc4)(c4ccccc4)c4ccccc4)CN3C(=O)c3ccccc3C(=O)c3ccc(F)cc3F)cc2)S1 [pyrrophenone]
